# In article PMC7909954 (eLife, 2021):
# Where “and” joins values, the source holds several entries; their conditions need not be identical. Identical values can stand only once. Like-named read-outs stand apart in the source and are kept apart here.
# Legend:
# [1] = target: T1, mMOR (Mus musculus, UniProt P42866); test: biochemical
# [2] = target: T2, DOR (Homo sapiens, UniProt P41143); test: cell-based; settings: for Emax: HEK-293T, read-out: Emax% cAMP inhibition hDOR
# [3] = target: T3, KOR (Homo sapiens, UniProt P41145); test: cell-based; settings: for Emax: HEK-293T, read-out: Emax% cAMP inhibition hKOR
# [4] = target: T1, mMOR; test: biochemical; settings: for EC50: EC50 mMOR [35S]GTPγS, ± SEM; for Emax: read-out: Emax mMOR [35S]GTPγS
# [5] = target: T4, rKOR (Rattus norvegicus, UniProt P34975); test: cell-based; settings: for Emax: HEK-293T, read-out: Emax% G protein activation (BRET) rKOR
# [6] = target: T2, DOR; test: cell-based; settings: for EC50: Tango; for Emax: HTLA, read-out: Emax% arrestin recruitment hDOR
# [7] = target: T5, mKOR (Mus musculus, UniProt P33534); test: biochemical; settings: for EC50: EC50 mKOR [35S]GTPγS, ± SEM; for Emax: read-out: Emax mKOR [35S]GTPγS
# [8] = target: T3, KOR; settings: for Bias factor (cAMP-Tango) hKOR: >1 G protein bias, <1 arrestin bias; for Bias factor (cAMP-Tango) hKOR / ΔlogRA Tango hKOR / ΔlogRA cAMP hKOR: vs U50,488h; for Log RA cAMP hKOR / LogRA Tango hKOR: transduction coefficient log(T/KA)
# [9] = target: T3, KOR; test: cell-based; settings: for EC50: EC50 arrestin recruitment (Tango) hKOR; for Emax: HTLA, read-out: Emax% arrestin recruitment (Tango) hKOR
# [10] = target: T1, mMOR; test: cell-based; settings: for Emax: HEK-293T, read-out: Emax% G protein activation (BRET) mMOR
# [11] = target: T6, MOR (Homo sapiens, UniProt P35372)
# [12] = target: T7, mDOR (Mus musculus, UniProt P32300); test: biochemical; settings: for Emax: read-out: Emax mDOR [35S]GTPγS
# [13] = target: T5, mKOR; test: biochemical
# [14] = target: T6, MOR; test: cell-based; settings: for Emax: HTLA, read-out: Emax% arrestin recruitment (Tango) hMOR
# [15] = target: T6, MOR; test: cell-based; settings: for Emax: HEK-293T, read-out: Emax% cAMP inhibition hMOR
# [16] = target: T7, mDOR; test: cell-based; settings: for EC50: EC50 G protein activation (BRET) mDOR; for Emax: HEK-293T, read-out: Emax% G protein activation (BRET) mDOR
# [17] = target: T7, mDOR; test: cell-based; settings: for Emax: HEK-293T, read-out: Emax% arrestin recruitment (BRET) mDOR
# [18] = target: T4, rKOR; test: cell-based; settings: HEK-293T, read-out: Emax% arrestin recruitment (BRET) rKOR
# [19] = target: T4, rKOR; settings: for ΔlogRA BRET-G rKOR / ΔlogRA BRET-arr rKOR: vs U50,488h
# [20] = target: T1, mMOR; test: cell-based; design: expressed in transfected cells; host or cells: HEK-293T
# [21] = EC50 G protein activation (BRET) mMOR
# [22] = EC50 arrestin recruitment (BRET) mDOR
# T2 sequence (P41143 whole entry): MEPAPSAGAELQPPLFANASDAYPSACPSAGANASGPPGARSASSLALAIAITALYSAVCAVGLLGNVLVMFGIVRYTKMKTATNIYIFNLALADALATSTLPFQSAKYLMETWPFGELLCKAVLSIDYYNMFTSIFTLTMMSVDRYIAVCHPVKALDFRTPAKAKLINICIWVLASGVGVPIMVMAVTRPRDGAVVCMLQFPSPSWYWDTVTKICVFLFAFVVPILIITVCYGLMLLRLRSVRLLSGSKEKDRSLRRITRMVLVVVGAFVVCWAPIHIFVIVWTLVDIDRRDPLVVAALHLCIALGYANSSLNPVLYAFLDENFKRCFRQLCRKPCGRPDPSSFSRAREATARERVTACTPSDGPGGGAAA
# T4 sequence (P34975 whole entry): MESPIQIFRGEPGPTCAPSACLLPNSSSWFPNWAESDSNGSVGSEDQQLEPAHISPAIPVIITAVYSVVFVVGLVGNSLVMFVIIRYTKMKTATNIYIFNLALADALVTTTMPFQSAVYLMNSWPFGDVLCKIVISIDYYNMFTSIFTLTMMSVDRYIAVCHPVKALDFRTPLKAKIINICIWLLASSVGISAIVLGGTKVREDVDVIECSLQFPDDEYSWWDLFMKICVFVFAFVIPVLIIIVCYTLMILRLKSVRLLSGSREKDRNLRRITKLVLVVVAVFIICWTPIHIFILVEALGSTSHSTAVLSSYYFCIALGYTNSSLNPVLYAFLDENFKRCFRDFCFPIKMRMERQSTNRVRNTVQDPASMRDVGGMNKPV
# T5 sequence (P33534 whole entry): as the sequence (P34975 whole entry) above, with E11D, A17S, P51S, V308A counted along it
# T7 sequence (P32300 whole entry): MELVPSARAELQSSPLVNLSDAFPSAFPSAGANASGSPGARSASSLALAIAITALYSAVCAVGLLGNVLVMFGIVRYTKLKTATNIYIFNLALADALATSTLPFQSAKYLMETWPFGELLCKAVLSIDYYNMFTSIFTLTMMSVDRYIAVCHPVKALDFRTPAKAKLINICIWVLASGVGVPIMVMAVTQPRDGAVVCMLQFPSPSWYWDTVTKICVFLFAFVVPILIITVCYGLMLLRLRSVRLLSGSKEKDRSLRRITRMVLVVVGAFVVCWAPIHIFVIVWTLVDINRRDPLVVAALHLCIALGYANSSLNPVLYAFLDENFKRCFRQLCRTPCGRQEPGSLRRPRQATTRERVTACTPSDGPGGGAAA
# T1 sequence (P42866 whole entry): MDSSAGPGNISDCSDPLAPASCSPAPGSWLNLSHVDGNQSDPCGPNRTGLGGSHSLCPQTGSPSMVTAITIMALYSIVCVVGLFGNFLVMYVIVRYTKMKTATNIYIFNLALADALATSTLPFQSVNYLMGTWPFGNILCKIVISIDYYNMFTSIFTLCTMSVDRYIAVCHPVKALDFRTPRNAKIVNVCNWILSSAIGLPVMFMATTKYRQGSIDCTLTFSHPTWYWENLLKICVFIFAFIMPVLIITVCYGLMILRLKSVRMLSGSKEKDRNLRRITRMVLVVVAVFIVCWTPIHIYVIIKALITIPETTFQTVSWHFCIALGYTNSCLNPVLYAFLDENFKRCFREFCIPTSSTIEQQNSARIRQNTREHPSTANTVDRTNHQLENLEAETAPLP
# T3 sequence (P41145 whole entry): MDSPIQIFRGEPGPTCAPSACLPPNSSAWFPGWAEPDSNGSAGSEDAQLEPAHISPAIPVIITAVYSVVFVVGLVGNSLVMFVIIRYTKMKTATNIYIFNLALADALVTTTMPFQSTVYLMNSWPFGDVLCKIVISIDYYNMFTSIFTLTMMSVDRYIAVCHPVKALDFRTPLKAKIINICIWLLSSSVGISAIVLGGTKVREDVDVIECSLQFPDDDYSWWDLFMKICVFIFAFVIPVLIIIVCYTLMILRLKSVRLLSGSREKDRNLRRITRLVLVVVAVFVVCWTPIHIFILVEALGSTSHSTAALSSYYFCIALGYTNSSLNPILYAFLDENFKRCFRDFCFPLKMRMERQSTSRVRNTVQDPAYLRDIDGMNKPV
# T6 sequence (P35372 whole entry): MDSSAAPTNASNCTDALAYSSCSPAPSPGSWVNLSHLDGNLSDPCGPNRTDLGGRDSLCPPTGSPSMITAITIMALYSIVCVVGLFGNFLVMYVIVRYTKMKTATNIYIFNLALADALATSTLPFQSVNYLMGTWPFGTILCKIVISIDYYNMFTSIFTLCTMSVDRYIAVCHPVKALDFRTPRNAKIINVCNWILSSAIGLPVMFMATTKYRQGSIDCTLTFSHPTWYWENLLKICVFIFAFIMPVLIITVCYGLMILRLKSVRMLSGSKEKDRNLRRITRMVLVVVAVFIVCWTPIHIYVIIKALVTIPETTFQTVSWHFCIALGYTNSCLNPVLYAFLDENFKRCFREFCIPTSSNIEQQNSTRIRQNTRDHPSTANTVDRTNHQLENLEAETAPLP
structure (smiles),measurement,setting,value
"CO[C@@]12CC[C@@H](NC(=O)c3cccc(I)c3)C3Oc4c(O)ccc5c4[C@@]31CCN(CC1CC1)C2C5 (stereo partly drawn) [MP1305, N-((4aS,7R,12bS)−3-(Cyclopropylmethyl)−9-hydroxy-4a-methoxy-2,3,4,4a,5,6,7,7a-octahydro-1H-4,12-methanobenzofuro[3,2-e]isoquinolin-7-yl)−3-iodobenzamide]",Ki,[1],0.25 ± 0.02 nM
same,EC50,[2]; EC50 cAMP inhibition hDOR,74.2 nM
same,Emax,[2],71 ± 2.4%
same,EC50,[3]; EC50 cAMP inhibition hKOR,720 pM
same,Emax,[3],102 ± 1.2%
same,EC50,[4],0.7 ± 0.1 nM
same,Emax,[4],81.2 ± 16%
same,EC50,[5],5.04 nM
same,Emax,[5],35 ± 3%
same,EC50,[6]; EC50 arrestin recruitment hDOR,228 nM
same,Emax,[6],89 ± 2.8%
same,EC50,[7],7.4 ± 1.8 nM
same,Emax,[7],42.2 ± 5.3%
same,ΔΔlog RA (cAMP-Tango) hKOR,[8],0.55±0.04
same,Bias factor (cAMP-Tango) hKOR,[8],4
same,Log RA cAMP hKOR,[8],9.22±0.012
same,LogRA Tango hKOR,[8],7.17±0.025
same,ΔlogRA Tango hKOR,[8],-1.341±0.036
same,ΔlogRA cAMP hKOR,[8],-0.79±0.017
same,EC50,[9],25.7 nM
same,Emax,[9],75 ± 1%
same,EC50,[10]; [21],0.74 nM
same,Emax,[10],72 ± 2%
same,Bias factor (cAMP-Tango) hMOR,[11],11
same,Log RA cAMP hMOR,[11],9.79±0.053
same,LogRA Tango hMOR,[11],6.89±0.048
same,ΔlogRA Tango hMOR,[11],0.109±0.049
same,ΔlogRA cAMP hMOR,[11],1.17±0.076
same,ΔΔlog RA (cAMP-Tango) hMOR,[11],1.059±0.090
same,Emax,[12],22 ± 0.9%
same,Ki,[13],2.5 ± 0.3 nM
same,EC50,[14],16.4 nM
same,Emax,[14],21 ± 3%
same,EC50,[15]; EC50 cAMP inhibition hMOR,0.12 nM
same,Emax,[15],69 ± 1.8%
same,EC50,[16],40.4 nM
same,Emax,[16],105 ± 5.9%
O=C(NC1CCC2(O)C3Cc4ccc(O)c5c4C2(CCN3CC2CC2)C1O5)c1cccc(I)c1 (centres unmarked) [IBNtxA],EC50,[17]; [22],26.6 nM
same,Emax,[17],88 ± 6.8%
same,EC50,"[17]; pEC50 arrestin recruitment (BRET) mDOR, ± SEM",31.6 nM
same,EC50,[2]; EC50 cAMP inhibition hDOR,0.43 nM
same,Emax,[2],106 ± 1%
same,EC50,"[2]; pEC50 cAMP inhibition hDOR, ± SEM",0.501 nM
same,EC50,"[3]; EC50 cAMP inhibition hKOR, cell printed in pM",2.46 pM
same,Emax,[3],101 ± 1.79%
same,EC50,[4],0.49 ± 0.12 nM
same,Emax,[4],101 ± 3%
same,Emax,[18],133 ± 7.3%
same,Emax,[5],101 ± 2.3%
same,EC50,[6]; EC50 arrestin recruitment hDOR,14.1 nM
same,Emax,[6],224 ± 5%
same,EC50,"[6]; pEC50 arrestin recruitment hDOR, ± SEM",15.8 nM
same,EC50,[7],0.22 ± 0.02 nM
same,Emax,[7],102 ± 4%
same,ΔΔlog RA (cAMP-Tango) hKOR,[8],-1.002±0.052
same,Bias factor (cAMP-Tango) hKOR,[8],0.1
same,Log RA cAMP hKOR,[8],11.59±0.036
same,LogRA Tango hKOR,[8],10.89±0.010
same,ΔlogRA Tango hKOR,[8],2.53±0.015
same,ΔlogRA cAMP hKOR,[8],1.53±0.050
same,EC50,[9],0.013 nM
same,Emax,[9],109 ± 1.8%
same,EC50,[10]; [21],0.054 nM
same,Emax,[10],59%
same,Bias factor (cAMP-Tango) hMOR,[11],24
same,Log RA cAMP hMOR,[11],9.99±0.081
same,LogRA Tango hMOR,[11],7.572±0.25
same,ΔlogRA Tango hMOR,[11],-0.25±0.25
same,ΔlogRA cAMP hMOR,[11],1.14±0.11
same,ΔΔlog RA (cAMP-Tango) hMOR,[11],1.38±0.28
same,EC50,[12],4.08 ± 0.67 nM
same,Emax,[12],95 ± 2%
same,Log RA BRET-G rKOR,[19],10.19±0.141
same,LogRA BRET-Arr rKOR,[19],8.846±0.266
same,ΔΔlog RA (BRETG-BRETArr) rKOR,[19],-0.218±0.388
same,ΔlogRA BRET-G rKOR,[19],2.64±0.175
same,ΔlogRA BRET-arr rKOR,[19],2.858±0.346
same,EC50,[20],11300 nM
same,Emax,"[20]; HEK-293T, read-out: Emax% arrestin recruitment (BRET) mMOR",75%
same,EC50,[14],5.86 nM
same,Emax,[14],29 ± 0.02%
same,EC50,[15]; EC50 cAMP inhibition hMOR,0.07 nM
same,Emax,[15],95 ± 2%
same,EC50,[16],0.48 nM
same,Emax,[16],108 ± 3.7%
"O=C(N[C@@H]1CC[C@@]2(O)C3Cc4ccc(O)cc4[C@@]2(CCN3CC2CC2)C1)c1cccc(I)c1 [MP1601, N-((4bR,6R,8aS)−11-(Cyclopropylmethyl)−3,8a-dihydroxy-6,7,8,8a,9,10-hexahydro-5H-9,4b-(epiminoethano)phenanthren-6-yl)−3-iodobenzamide]",Ki,[1],0.2 ± 0.01 nM
same,EC50,[17]; [22],9 nM
same,Emax,[17],16 ± 1.4%
same,EC50,[2]; EC50 cAMP inhibition hDOR,2.76 nM
same,Emax,[2],106 ± 2.3%
same,Emax,[3],109 ± 1%
same,EC50,"[3]; pEC50 cAMP inhibition hKOR, ± SEM",174 pM
same,EC50,[4],0.5 ± 0.2 nM
same,Emax,[4],45 ± 4.6%
same,Emax,[18],37 ± 3%
same,Emax,[5],75 ± 3%
same,EC50,[6]; EC50 arrestin recruitment hDOR,86.7 nM
same,Emax,[6],203 ± 5.4%
same,EC50,[7],3 ± 0.7 nM
same,Emax,[7],72 ± 4.5%
same,ΔΔlog RA (cAMP-Tango) hKOR,[8],-0.282±0.023
same,Bias factor (cAMP-Tango) hKOR,[8],0.5 and 0.52
same,Log RA cAMP hKOR,[8],9.85±0.014
same,LogRA Tango hKOR,[8],8.51±0.009
same,ΔlogRA Tango hKOR,[8],0.097±0.012
same,ΔlogRA cAMP hKOR,[8],-0.19±0.020
same,EC50,[9],3.23 nM
same,Emax,[9],107 ± 3%
same,EC50,[10]; [21],2.2 nM
same,Emax,[10],49 ± 3%
same,EC50,[10]; pEC50 G protein activation (BRET) mMOR,2.51 nM
same,Bias factor (cAMP-Tango) hMOR,[11],4
same,Log RA cAMP hMOR,[11],9.84±0.002
same,LogRA Tango hMOR,[11],7.65±0.035
same,ΔlogRA Tango hMOR,[11],0.87±0.036
same,ΔlogRA cAMP hMOR,[11],1.44±0.002
same,ΔΔlog RA (cAMP-Tango) hMOR,[11],0.57±0.036
same,Emax,[12],67 ± 3.9%
same,Log RA BRET-G rKOR,[19],7.917±0.018
same,LogRA BRET-Arr rKOR,[19],7.113±0.052
same,ΔΔlog RA (BRETG-BRETArr) rKOR,[19],-0.006±0.057
same,ΔlogRA BRET-G rKOR,[19],0.324±0.052
same,ΔlogRA BRET-arr rKOR,[19],0.33±0.052
same,Ki,[13],2.13 ± 0.3 nM
same,EC50,[14],4.02 nM
same,Emax,[14],27 ± 2%
same,EC50,[15]; EC50 cAMP inhibition hMOR,0.1 nM
same,Emax,[15],69 ± 1%
same,EC50,[15]; pEC50 cAMP inhibition hMOR,0.102 nM
same,EC50,[16],6.27 nM
same,Emax,[16],105 ± 6.7%
